Assay results as given in patent publication EP3461488A1, “COMBINATION OF A DBAIT MOLECULE AND A HDAC INHIBITOR FOR TREATING CANCER” (ONXEO, priority 2017, dated 2019).
Read-outs that look alike come from different tables or passages of the source.

Experiments:
[1] = tested on: histiocytic lymphoma cell line U937; assay: XTT cell survival assay and combination index analysis, U937; format: cell-based; details: Homo sapiens, U-937
Description: (§1) Cell cultures were performed with the triple negative breast cancer cell line MDA-MB-231, the histiocytic lymphoma cell line U937 and the non-tumor mammary cell line MCF-10A. Cells were grown according to the supplier's instructions. Cell lines were maintained at 37°C in a humidified atmosphere at 5% CO2, except the MDA-MB-231 cell line which was maintained at 0% CO2.
(§2) In a first step, the characterization of the effect of drugs monotherapy on cell survival (tumour and non-tumour cells) was performed. MDA-MB-231 (5.10^3 cells/well), MCF-10A (5.10^3 cells/well) and U937 (2.10^4 cells/well) were seeded in 96 well-plates and incubated 24 hours at +37°C before drug addition with increasing concentrations for 4 to 7 days. Following drug exposure, cell survival was measured using the XTT assay (Sigma Aldrich). Briefly, the XTT solution was added directly to each well containing cell culture and the cells incubated for 4 to 24 hours at 37°C before reading the absorbance at 490 nm and 690 nm using a microplate reader (BMG Fluostar, Galaxy). Cell survival was calculated as the ratio of living treated cells to living mock-treated cells. The IC50 (which represents the dose at which 50% of the cells are viable) was calculated by a non-linear regression model using GraphPad Prism software (version 5.04) by plotting the percentage viability against the Log of the drug concentration on each cell line.

[2] = tested on: triple negative breast cancer cell line MDA-MB-231; assay: XTT cell survival assay and combination index analysis, MDA-MB-231; format: cell-based; details: Homo sapiens
Description: Cells were grown according to the supplier's instructions.
In a first step, the characterization of the effect of drugs monotherapy on cell survival (tumour and non-tumour cells) was performed. […] Following drug exposure, cell survival was measured using the XTT assay (Sigma Aldrich). […] Cell survival was calculated as the ratio of living treated cells to living mock-treated cells.
(§3) In a second step, analysis and quantification of the drug combination efficacy were performed. Cells were seeded in 96-well plates at the appropriate densities and treated with AsiDNA and/or the HDAC inhibitor (HDACi) belinostat simultaneously during 4 to 7days.
Combination efficacy was evaluated by "the combination index (CI)" which was determined using the CalcuSyn software tool based on the Chou Talalay method). […] Note that we define synergism as a more than expected additive effect, and antagonism as a less than expected additive effect.
In a first step, the characterization of the effect of drugs monotherapy on cell survival (tumour and non-tumour cells) was performed. […] Following drug exposure, cell survival was measured using the XTT assay (Sigma Aldrich). […] Cell survival was calculated as the ratio of living treated cells to living mock-treated cells. […] In a second step, analysis and quantification of the drug combination efficacy were performed. […] Cell survival was measured using the XTT assay (see above). Combination efficacy was evaluated by "the combination index (CI)" which was determined using the CalcuSyn software tool based on the Chou Talalay method. […]
In a first step, characterization of the effect of drugs monotherapy on cell survival (tumour and non-tumour cells) was performed. […] Following drug exposure, cell survival was measured using the XTT assay (Sigma Aldrich). […] Cell survival was calculated as the ratio of living treated cells to living mock-treated cells. […] In a second step, analysis and quantification of the drug combination efficacy were performed. […] Cell survival was measured using the XTT assay (see above). […]

[3] = tested on: non-tumor mammary cell line MCF-10A; assay: XTT cell survival assay, non-tumor cells MCF-10A; details: same drug doses as MDA-MB-231, 7 days after treatment, result in words
Description: as §1, §2, §3
In a first step, the characterization of the effect of drugs monotherapy on cell survival (tumour and non-tumour cells) was performed. MDA-MB-231 (5.10^3 cells/well), MCF-10A (5.10^3 cells/well) and U937 (2.10^4 cells/well) were seeded in 96 well-plates and incubated 24 hours at +37°C before drug addition with increasing concentrations for 4 to 7 days. Following drug exposure, cell survival was measured using the XTT assay (Sigma Aldrich). Briefly, the XTT solution was added directly to each well containing cell culture and the cells incubated for 4 to 24 hours at 37°C before reading the absorbance at 490 nm and 690 nm using a microplate reader (BMG Fluostar, Galaxy). Cell survival was calculated as the ratio of living treated cells to living mock-treated cells. […] In a second step, analysis and quantification of the drug combination efficacy were performed. […] Cell survival was measured using the XTT assay (see above). Combination efficacy was evaluated by "the combination index (CI)" which was determined using the CalcuSyn software tool based on the Chou Talalay method. […]

[4] = U937, XTT assay, monotherapy, increasing concentrations for 4 to 7 days, dose at which 50% of the cells are viable, read-out: IC50
[5] = XTT assay, monotherapy, increasing concentrations for 4 to 7 days, dose at which 50% of the cells are viable, read-out: IC50

Question: With `O=C(/C=C/c1cccc(S(=O)(=O)Nc2ccccc2)c1)NO` [Belinostat, (2E)-N-hydroxy-3-[3-(phenylsulfamoyl)phenyl]prop-2-enamide] as the compound, how does the IC50 [1, 4] read?
Answer: 250 nM

Question: What about the IC50 [2, 5] of the same compound?
Answer: 250 nM

Question: And the “cell survival of non-tumor cells (sensitivity)” value (shortened to “cell survival of non-tumor cells”) [3]?
Answer: insensitive

Question: Which “cell survival of non-tumor cells” value [3] does the source give for `O=C(CCCCCCC(=O)Nc1ccccc1)NO` [Vorinostat, N-hydroxy-N'-phenyloctanediamide] here?
Answer: showed a sensitivity

Question: What does the source list for `Nc1ccccc1NC(=O)c1ccc(CNC(=O)OCc2cccnc2)cc1` [Entinostat]?
Answer: IC50 [1, 4]: 10 nM; IC50 [2, 5]: 100 nM; cell survival of non-tumor cells (sensitivity) [3]: insensitive

Question: How did the IC50 [1] turn out when `C/C=C1\NC(=O)[C@H]2CSSCC/C=C/[C@H](CC(=O)N[C@H](C(C)C)C(=O)N2)OC(=O)[C@H](C(C)C)NC1=O` [Romidepsin] was run?
Answer: 1 nM

Question: And the IC50 [2]?
Answer: 0.4 nM

Question: What about the “cell survival of non-tumor cells” value [3] of the same compound?
Answer: showed a sensitivity
